Experimental data taken from patent US20050075335A1, “Pharmaceutical composition comprising n((1-n-butyl-4-piperidinyl)methyl)-3,4-dihydro-2h-(1,3)oxazino(3,2-a)indole-10-carboxamide or salt and process therefor comprising dry granulation” (priority 2002, published 2005).
Structures can show the parent of a compound that is named as a salt.

Assay: Aerated and tapped bulk density of SB-207266-A
Assay type: physicochemical
Conditions: SB-207266-A batches from Description 1

Row | Structure (SMILES) | Aerated bulk density [g/mL] | Tapped bulk Density [g/mL]
1 | CCCCN1CCC(CNC(=O)c2c3n(c4ccccc24)CCCO3)CC1.Cl [BDC-G-02C] | 0.142 | 0.300
2 | CCCCN1CCC(CNC(=O)c2c3n(c4ccccc24)CCCO3)CC1.Cl [BDC-G-04C] | 0.146 | 0.310
3 | CCCCN1CCC(CNC(=O)c2c3n(c4ccccc24)CCCO3)CC1.Cl [BDC-H-01C] | 0.136 | 0.250
4 | CCCCN1CCC(CNC(=O)c2c3n(c4ccccc24)CCCO3)CC1.Cl [BDC-G-03C] | 0.173 | 0.339
5 | CCCCN1CCC(CNC(=O)c2c3n(c4ccccc24)CCCO3)CC1.Cl [BDC-G-05C] | 0.152 | 0.308

Same assay, conditions: typical value, product of Description 2

Row | Structure (SMILES) | Aerated bulk density | Tapped bulk Density
6 | CCCCN1CCC(CNC(=O)c2c3n(c4ccccc24)CCCO3)CC1 [SB-207266-A, N-[(1-^nbutyl-4-piperidinyl)methyl]-3,4-dihydro-2H-[1,3]-oxazino[3,2-a]indole-10-carboxamide hydrochloride] | ca. 0.14 g/ml | ca. 0.31 g/ml
